Source: patent US20040024024A1, “Aromatic sulfone hydroxamates and their use as protease inhibitors” (priority 2001, published 2004)
One block for each molecule: values may come before it.

Legend:
Experiment in all cases: In vitro MMP inhibition, IC50 determination (fluorogenic substrate I)
Assay type in all cases: biochemical
[1] = target: T1, Human recombinant MMP-14 (Homo sapiens, UniProt P50281)
T1 construct: The catalytic domain enzyme was expressed in E. coli inclusion bodies, solubilized in urea; made in house
Procedure, shortened: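 Catalytic-domain MMP-14, expressed in E. coli and refolded, activated with APMA or trypsin; compounds incubated at room temperature with 4 μM fluorogenic substrate I (MCA-PLGL-Dpa-AR-NH2) in Tris/NaCl/CaCl2 buffer, pH 7.5. Fluorescence at ex 328/em 415 nm; IC50 from loss of fluorescence versus inhibitor concentration.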

[2] = target: T2, Human recombinant MMP-2 (Homo sapiens, UniProt P08253)
T2 construct: made in house; host or cells: MMP-2-transfected p2AHT2 cells
T2 sequence (P08253 110-660): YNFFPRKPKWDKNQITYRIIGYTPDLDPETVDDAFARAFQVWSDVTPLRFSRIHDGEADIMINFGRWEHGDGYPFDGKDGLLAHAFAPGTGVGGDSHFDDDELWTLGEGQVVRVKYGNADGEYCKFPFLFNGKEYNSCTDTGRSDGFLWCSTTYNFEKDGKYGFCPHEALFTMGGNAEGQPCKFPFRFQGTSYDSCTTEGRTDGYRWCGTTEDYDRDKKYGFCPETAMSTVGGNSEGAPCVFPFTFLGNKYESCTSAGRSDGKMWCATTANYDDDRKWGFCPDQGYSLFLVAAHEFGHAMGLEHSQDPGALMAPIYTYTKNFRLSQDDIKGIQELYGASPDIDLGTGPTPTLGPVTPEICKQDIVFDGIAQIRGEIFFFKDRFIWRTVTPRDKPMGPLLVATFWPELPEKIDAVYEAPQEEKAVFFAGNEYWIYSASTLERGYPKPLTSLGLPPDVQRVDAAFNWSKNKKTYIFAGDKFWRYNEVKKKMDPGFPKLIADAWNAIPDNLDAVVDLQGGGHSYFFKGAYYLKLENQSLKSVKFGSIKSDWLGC
Procedure, shortened: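 APMA- or trypsin-activated recombinant MMP-2 was incubated at room temperature with serial inhibitor dilutions in Tris buffer pH 7.5 (100 mM NaCl, 10 mM CaCl2, 0.05% Brij), with DMSO from 1% stocks, and 4 μM substrate I. Cleavage was read by fluorescence at 328/415 nm; IC50 was taken from the loss of fluorescence versus inhibitor concentration.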

[3] = target: T3, Human recombinant MMP-9 (Homo sapiens, UniProt P14780)
T3 construct: made in house; host or cells: MMP-9-transfected HT1080 cells (spent media)
T3 sequence (P14780 107-707 limits assumed): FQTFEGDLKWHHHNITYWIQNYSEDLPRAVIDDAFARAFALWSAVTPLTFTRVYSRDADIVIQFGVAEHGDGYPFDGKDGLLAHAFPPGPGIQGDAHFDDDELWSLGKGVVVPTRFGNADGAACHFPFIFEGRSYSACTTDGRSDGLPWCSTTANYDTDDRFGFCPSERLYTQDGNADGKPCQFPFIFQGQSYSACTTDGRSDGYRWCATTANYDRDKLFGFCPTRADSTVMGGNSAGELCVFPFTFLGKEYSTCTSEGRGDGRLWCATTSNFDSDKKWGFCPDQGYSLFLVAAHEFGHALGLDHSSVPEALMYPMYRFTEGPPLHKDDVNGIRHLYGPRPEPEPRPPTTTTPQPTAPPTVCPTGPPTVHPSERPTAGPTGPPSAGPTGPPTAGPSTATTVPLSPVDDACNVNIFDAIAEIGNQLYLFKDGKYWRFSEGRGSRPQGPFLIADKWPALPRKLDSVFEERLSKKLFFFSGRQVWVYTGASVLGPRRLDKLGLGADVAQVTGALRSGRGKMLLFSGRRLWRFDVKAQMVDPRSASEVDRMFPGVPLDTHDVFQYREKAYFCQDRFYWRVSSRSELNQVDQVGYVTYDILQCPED
Procedure, shortened: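 MMP-9 proenzyme purified from transfected HT1080 cell media, activated with APMA or trypsin. Compound dilutions in pH 7.5 Tris/NaCl/CaCl2 buffer with 0.05% polyoxyethylene 23 lauryl ether, incubated at room temperature with 4 μM MCA/Dpa substrate I. IC50 from fluorescence loss (ex 328, em 415 nm) versus inhibitor concentration.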

[4] = target: T4, Human recombinant MMP-1 (Homo sapiens, UniProt P03956)
T4 construct: made in house; host or cells: MMP-1-transfected HT-1080 cells (spent media)
T4 sequence (P03956 100-469): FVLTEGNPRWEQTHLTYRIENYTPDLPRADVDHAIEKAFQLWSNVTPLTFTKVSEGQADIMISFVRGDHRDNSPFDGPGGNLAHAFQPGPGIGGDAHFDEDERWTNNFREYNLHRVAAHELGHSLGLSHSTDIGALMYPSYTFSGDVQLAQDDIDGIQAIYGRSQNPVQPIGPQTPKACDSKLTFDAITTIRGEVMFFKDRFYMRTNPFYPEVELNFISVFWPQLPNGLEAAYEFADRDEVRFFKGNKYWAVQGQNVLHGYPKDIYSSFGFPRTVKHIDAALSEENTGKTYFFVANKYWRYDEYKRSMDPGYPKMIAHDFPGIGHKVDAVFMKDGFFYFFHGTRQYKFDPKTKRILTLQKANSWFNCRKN
Procedure, shortened: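 APMA- or trypsin-activated enzyme, purified from spent media of transfected HT-1080 cells, incubated at room temperature with 4 μM MCA-Pro-Leu-Gly-Leu-Dpa-Ala-Arg-NH2 and graded inhibitor in Tris buffer pH 7.5 (10 mM CaCl2, 0.05% Brij). Cleavage read by fluorescence (ex 328/em 415 nm); IC50 from fluorescence reduction versus inhibitor concentration.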

[5] = target: T5, Human recombinant MMP-13 (Homo sapiens, UniProt P45452)
T5 construct: made in house; host or cells: baculovirus / insect cells
Procedure, shortened: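 Fluorescence at 415 nm (excitation 328 nm) reports Gly-Leu cleavage of 4 μM quenched methoxycoumarin peptide substrate I. Human recombinant MMP-13, activated by trypsin or APMA, was incubated at room temperature with varied inhibitor concentrations in pH 7.5 Tris/NaCl/CaCl2 buffer; IC50 derived from reduced fluorescence.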

[6] = value outside parentheses (Ki in parenthesis)
[7] = substrate (I) 4 μM, room temperature, values not in parenthesis

IC50 ([1]; value outside parentheses): > 10000 nM
IC50 ([2]; value outside parentheses): 184 nM
IC50 ([3]; value outside parentheses): 7710 nM
IC50 ([4]; value outside parentheses): > 10000 nM
IC50 ([5]; value outside parentheses): 1.4 nM
Compound: COc1ccc(-c2nnc(CCCOc3ccc(S(=O)(=O)C4(C(=O)NO)CCOCC4)cc3)o2)cc1 [Example 501]

IC50 ([1]; value outside parenthesis): > 10000 nM
IC50 ([2]; value outside parenthesis): 341 nM
IC50 ([3]; value outside parenthesis): 383 nM
IC50 ([4]; value outside parenthesis): 6960 nM
IC50 ([5]; value outside parenthesis): 9.5 nM
Compound: CCc1ccc(N2CCN(CCCOc3ccc(S(=O)(=O)C4(C(=O)NO)CCOCC4)cc3)C2=O)cc1 [Example 191]

IC50 [1, 6]: > 10000 nM
IC50 [2, 6]: 454 nM
IC50 [3, 6]: > 10000 nM
IC50 [4, 6]: > 10000 nM
IC50 [5, 6]: 5.2 nM
Compound: CCCC(C)C(=O)NCCCOc1ccc(S(=O)(=O)C2(C(=O)NO)CCOCC2)cc1 (stereo not shown) [Example 403]

IC50 [1, 6]: 6560 nM
IC50 [2, 6]: 8.1 nM
IC50 [3, 6]: 64.6 nM
IC50 [4, 6]: 6810 nM
IC50 [5, 6]: 0.5 nM
Compound: O=C(CCCOc1ccc(S(=O)(=O)C2(C(=O)NO)CCOCC2)cc1)c1cccs1 [Example 297]

IC50 ([1]; value outside parenthesis): > 10000 nM
IC50 ([2]; value outside parenthesis): 8.6 nM
IC50 ([3]; value outside parenthesis): 61.1 nM
IC50 ([4]; value outside parenthesis): > 10000 nM
IC50 ([5]; value outside parenthesis): 0.2 nM
Compound: COCCN1CCC(C(=O)NO)(S(=O)(=O)c2ccc(OCCCCC(=O)c3ccc(OC)cc3)cc2)CC1 [Example 245]

IC50 [1, 6]: 962 nM
IC50 [2, 6]: 9.7 nM
IC50 [3, 6]: 547 nM
IC50 [4, 6]: > 10000 nM
IC50 [5, 6]: 6.4 nM
Compound: O=C(NO)C1(S(=O)(=O)c2ccc(OCCCCCN3CCc4ccccc4C3)cc2)CCOCC1 [Example 360]

IC50 ([1]; value outside parentheses): 3490 nM
IC50 ([2]; value outside parentheses): 18.7 nM
IC50 ([3]; value outside parentheses): 83.1 nM
IC50 ([4]; value outside parentheses): 7350 nM
IC50 ([5]; value outside parentheses): 1.41 nM
Compound: O=C(NO)C1(S(=O)(=O)c2ccc(OCCOCc3cccc(OC(F)(F)F)c3)cc2)CCOCC1 [Example 660]

IC50 [1, 7]: > 10000 nM
IC50 [2, 7]: 247 nM
IC50 [3, 7]: 8500 nM
IC50 [4, 7]: > 10000 nM
IC50 [5, 7]: 1.8 nM
Compound: COc1ccc(/C(CCCCOc2ccc(S(=O)(=O)C3(C(=O)NO)CCOCC3)cc2)=N/O)c(OC)c1 [Example 25]

IC50 ([1]; value outside parenthesis): > 10000 nM
IC50 ([2]; value outside parenthesis): 246 nM
IC50 ([3]; value outside parenthesis): 3440 nM
IC50 ([4]; value outside parenthesis): > 10000 nM
IC50 ([5]; value outside parenthesis): 0.4 nM
Compound: O=C(NO)C1(S(=O)(=O)c2ccc(OCCc3cccc(-c4ccccc4)c3)cc2)CCOCC1 [Example 99]

IC50 [1, 6]: 2430 nM
IC50 [2, 6]: 25 nM
IC50 [3, 6]: 375 nM
IC50 [4, 6]: > 10000 nM
IC50 [5, 6]: 3.5 nM
Compound: O=C(NO)C1(S(=O)(=O)c2ccc(OCCCOc3cccc(C(F)(F)F)c3)cc2)CCN(C2CC2)CC1 [Example 443]

IC50 ([1]; value outside parentheses): > 10000 nM
IC50 ([2]; value outside parentheses): 156 nM
IC50 ([3]; value outside parentheses): 891 nM
IC50 ([4]; value outside parentheses): > 10000 nM
IC50 ([5]; value outside parentheses): 3.27 nM
Compound: CC(=O)c1cccc(OCCOc2ccc(S(=O)(=O)C3(C(=O)NO)CCOCC3)cc2)c1 [Example 658]

IC50 ([1]; value outside parenthesis): > 10000 nM
IC50 ([2]; value outside parenthesis): 760 nM
IC50 ([3]; value outside parenthesis): 7670 nM
IC50 ([4]; value outside parenthesis): > 10000 nM
IC50 ([5]; value outside parenthesis): 1.9 nM
Compound: O=C(NO)C1(S(=O)(=O)c2ccc(OCCc3cccc(-c4ccc(F)c(F)c4)c3)cc2)CCOCC1 [Example 122]

IC50 ([1]; value outside parentheses): > 10000 nM
IC50 ([2]; value outside parentheses): 78.2 nM
IC50 ([3]; value outside parentheses): 616 nM
IC50 ([4]; value outside parentheses): > 10000 nM
IC50 ([5]; value outside parentheses): 61 nM
Compound: O=C(NO)C1(S(=O)(=O)c2ccc(OCCOCC3CCCCO3)cc2)CCOCC1 (stereo not shown) [Example 661]

IC50 [1, 6]: 5000 nM
IC50 [2, 6]: 13 nM
IC50 [3, 6]: 800 nM
IC50 [4, 6]: > 10000 nM
IC50 [5, 6]: 3 nM
Compound: COc1cc(COCCCOc2ccc(S(=O)(=O)C3(C(=O)NO)CCOCC3)cc2)cc(OC)c1 [Example 453]
